Data taken from PMC11858513, “Antibiofilm Activities of Tritrpticin Analogs Against Pathogenic Pseudomonas aeruginosa PA01 Strains” (Molecules, 2025).
≈ marks a conversion by molar mass, not a printed value. Like-named read-outs stand apart in the source and are kept apart here. Residues, ends and D or L forms follow the SMILES beside them.

How the values were obtained:
S. aureus GFP [1] = experiment: MIC against planktonic cells, absorbance at 600 nm; assay type: cell-based, Staphylococcus aureus; conditions: Table 4; Sa GFP, 10% TSB and 0.1% glucose; absorbance 600 nm; mean of three biological replicates
In short: (§1)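 GFP-expressing S. aureus, triplicate biological replicates. MIC on planktonic cells by absorbance at 600 nm. MBIC and MBEC from biofilm GFP fluorescence (480/530 nm), with untreated growth and media-only controls.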

S. aureus GFP [2] = experiment: MBIC, GFP fluorescence method; assay type: cell-based, Staphylococcus aureus; conditions: Table 4, Sa GFP, 10% TSB and 0.1% glucose, mean of three biological replicates
In short: as §1

P. aeruginosa PAO1 GFP [3] = experiment: MBIC, prevention of biofilm formation, GFP fluorescence method; assay type: cell-based, Pseudomonas aeruginosa; conditions: Table 2, BM2 medium, mean of three biological replicates
In short: (§2)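 GFP-expressing P. aeruginosa PAO1 exposed to peptides; planktonic MIC read by absorbance at 600 nm, while MBIC (prevention) and MBEC (eradication) used biofilm GFP fluorescence at 480/530 nm. Triplicate biological replicates averaged, with untreated growth and medium-only controls on each plate.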

P. aeruginosa PAO1 GFP [4] = experiment: MBEC, biofilm eradication, GFP fluorescence method; assay type: cell-based, Pseudomonas aeruginosa; conditions: Table 2, BM2 medium, mean of three biological replicates
In short: as §2

S. aureus GFP [5] = experiment: MBEC, GFP fluorescence method; assay type: cell-based, Staphylococcus aureus; conditions: Table 4, Sa GFP, 10% TSB and 0.1% glucose, mean of three biological replicates
In short: as §1

P. aeruginosa PAO1 [6] = assay type: cell-based
In short: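 Peptides tested against P. aeruginosa PAO1 in 1× BM2 medium; planktonic growth read at 600 nm for MIC. Biofilm inhibition and eradication quantified by 0.1% crystal violet staining (15 min), ethanol release, absorbance at 595 nm, plus GFP-fluorescence and Calgary peg-device methods; triplicate means.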

P. aeruginosa PAO1 [7] = assay type: cell-based, Pseudomonas aeruginosa; conditions: Table 5; regular PAO1 (no GFP), 1x BM2; absorbance 600 nm; mean of three biological replicates
In short: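 PAO1 tested with peptides in 1× BM2; planktonic growth read at 600 nm, biofilm quantified by 0.1% crystal violet staining (15 min), ethanol release and 595 nm reading, using a Calgary biofilm device. Values are means of three replicates with untreated-growth and medium-only controls.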

S. aureus GFP [8] = assay type: cell-based, Staphylococcus aureus; conditions: Table 4; Sa GFP; lowest concentration of peptide with no bacterial growth seen on the spot agar plate
P. aeruginosa PAO1 GFP [9] = experiment: MIC against planktonic cells, absorbance at 600 nm; assay type: cell-based, Pseudomonas aeruginosa; conditions: Table 2, BM2 medium, absorbance 600 nm, mean of three biological replicates
In short: as §2

P. aeruginosa PAO1 [10] = assay type: cell-based, Pseudomonas aeruginosa; conditions: Table 5; PAO1, 1x BM2; biofilms on pegs, cells plated and counted; three biological replicates
Description: We note the close agreement with the MBIC and MBEC values determined by the fluorescence and CV methods, similar to what we found in our previous work for an S. aureus MRSA strain [23]. We also re-evaluated the MBEC values that are measured using the Calgary biofilm device (CBD), where biofilms form on pegs, rather than at the bottom of the 96-well plates. […] In particular, we find that the single Pro9Ala Tritrp-P9A-substituted version has better MIC, MBIC and MBEC activities than the parent peptide as well as the Tritrp-P59A analog with both prolines substituted to Ala.
Figure 5 The MBEC values for the peptides were assessed against P. aeruginosa PAO1 in the presence of 1× BM2 medium. The eradication of biofilm cells was determined for the peptides using the counting of biofilm cells formed by Pa PAO1. Three biological replicates were run for each test sample, and the mean was calculated for counted cell values. Data points with error bars indicate the standard deviation (±SD).
The methods to determine the MIC, MBIC and MBEC have been described in detail in our previous publication. The green fluorescent protein (GFP)-producing P. aeruginosa and S. aureus strains that were used in this work were also described in the earlier publication. Fluorescence detection was used as the main method to estimate the number of cells entrapped in the biofilm matrix. The methodology used for evaluation of the antibiofilm properties against an original Pseudomonas PA01 strain by crystal violet dye staining and the use of the Calgary biofilm device has been described elsewhere. The regular PA01 strain was provided by Dr. J. Harrison, Calgary. All measurements were carried out on an Eppendorf AF2200 plate reader. Every 96-well plate included controls for bacterial cell growth without peptide treatment and media alone. All measurements were carried out in triplicate, and the values in the figures represent the average and the error bars are standard deviation.

[11] = Table 5, PAO1, 1x BM2, crystal violet at 595 nm, mean of three biological replicates
[12] = Table 5, minimum biofilm reduction concentration, PAO1, 1x BM2, crystal violet at 595 nm, mean of three biological replicates

Compound | MIC at 600 nm LD50 (S. aureus GFP [1]) [µM] | MIC at 600 nm LD90 (S. aureus GFP [1]) [µM] | MBIC at 488 and 530 nm LD50 (S. aureus GFP [2]) [µmol/L] | MBIC at 488 and 530 nm LD90 (S. aureus GFP [2]) [µmol/L] | MBIC at 488 and 530 nm LD50 (P. aeruginosa PAO1 GFP [3]) [µmol/L] | MBIC at 488 and 530 nm LD90 (P. aeruginosa PAO1 GFP [3]) [µmol/L] | MBEC at 488 and 530 nm LD50 (P. aeruginosa PAO1 GFP [4]) [µmol/L] | MBEC at 488 and 530 nm LD90 (P. aeruginosa PAO1 GFP [4]) [µmol/L] | MBEC at 488 and 530 nm LD50 (S. aureus GFP [5]) [µmol/L] | MBEC at 488 and 530 nm LD90 (S. aureus GFP [5]) [µmol/L] | MBIC (CV at 595 nm) LD50 (P. aeruginosa PAO1 [6]; [11]) [µmol/L] | MBIC (CV at 595 nm) LD90 (P. aeruginosa PAO1 [6]; [11]) [µmol/L] | MBRC (CV at 595 nm) LD90 (P. aeruginosa PAO1 [6]; [12]) [µmol/L] | MIC at 600 nm LD50 (P. aeruginosa PAO1 [7]) [µM] | MIC at 600 nm LD90 (P. aeruginosa PAO1 [7]) [µM] | MBC Agar Plate (S. aureus GFP [8]) [µM] | MIC at 600 nm LD50 (P. aeruginosa PAO1 GFP [9]) [µM] | MIC at 600 nm LD90 (P. aeruginosa PAO1 GFP [9]) [µM] | MBEC from Calgary Biofilm Device (CBD) LD50 (P. aeruginosa PAO1 [10]) [µmol/L] | MBEC from Calgary Biofilm Device (CBD) LD90 (P. aeruginosa PAO1 [10]) [µmol/L] | further results
CC(C)C[C@H](NC(=O)[C@H](Cc1ccccc1)NC(=O)[C@@H]1CCCN1C(=O)[C@H](Cc1ccccc1)NC(=O)[C@H](Cc1ccccc1)NC(=O)[C@H](Cc1ccccc1)NC(=O)[C@@H]1CCCN1C(=O)[C@H](Cc1ccccc1)NC(=O)[C@H](CCCNC(=N)N)NC(=O)[C@H](CCCNC(=N)N)NC(=O)[C@@H](N)C(C)C)C(=O)N[C@@H](CCCNC(=N)N)C(=O)N[C@@H](CCCNC(=N)N)C(N)=O [Tritrp-W678F] (H-VRRFPFFFPFLRR-NH2) | 0.5 (≈ 0.892 µg/mL) | 0.5 (≈ 0.892 µg/mL) | 1 | 1 | 32 | 64 | 32 | 64 | 2 | 4 | 64 | >64 | >128 | 32 (≈ 57.1 µg/mL) | >64 | 8 (≈ 14.3 µg/mL) | 32 (≈ 57.1 µg/mL) | >64 | 128 | 128 | MBRC (CV at 595 nm) LD50 (P. aeruginosa PAO1 [6]; PAO1): 128 µmol/L
CC(C)C[C@H](NC(=O)[C@H](Cc1ccccc1)NC(=O)[C@@H]1CCCN1C(=O)[C@H](Cc1ccc(O)cc1)NC(=O)[C@H](Cc1ccc(O)cc1)NC(=O)[C@H](Cc1ccc(O)cc1)NC(=O)[C@@H]1CCCN1C(=O)[C@H](Cc1ccccc1)NC(=O)[C@H](CCCNC(=N)N)NC(=O)[C@H](CCCNC(=N)N)NC(=O)[C@@H](N)C(C)C)C(=O)N[C@@H](CCCNC(=N)N)C(=O)N[C@@H](CCCNC(=N)N)C(N)=O [Tritrp-W678Y] (H-VRRFPYYYPFLRR-NH2) | 1 (≈ 1.83 µg/mL) | 2 (≈ 3.66 µg/mL) | 1 | 2 | >64 | >64 | >128 | >128 | 2 | 8 | >64 | >64 | >128 | >64 | >64 | 16 (≈ 29.3 µg/mL) | >64 | >64 | >128 | >128 | MBRC (CV at 595 nm) LD50 (P. aeruginosa PAO1 [6]; PAO1): 128 µmol/L
VRRFP(hW)(hW)(hW)PFLRR-NH2 [Tritrp-W678hW, Tritrp analog with hydroxy-Trp in place of the three Trp] | 2 | 4 | 2 | 4 | 16 | 64 | >128 | >128 | 4 | 8 | 32 | >64 | >128 | >64 | >64 | 16 | 32 | 64 | >128 | >128 | MBRC (CV at 595 nm) LD50 (P. aeruginosa PAO1 [6]; [12]): >128 µmol/L
